7 compounds from article PMC4508201 (Organic & biomolecular chemistry, 2015) can be followed below.

One assay concerns the target recombinant human S1PR2 (Homo sapiens, UniProt O95136). Kind of assay: [32P]S1P competitive cell membrane binding assay, S1PR2.
The target in a further assay is S1PR3 (Homo sapiens, UniProt Q99500). In words: [32P]S1P competitive cell membrane binding assay, S1PR3.
In another assay the target is S1PR1 (Homo sapiens, UniProt P21453). Kind of assay: [32P]S1P competitive cell membrane binding assay, S1PR1.
Sequence of S1PR1 (P21453 whole entry, species assumed): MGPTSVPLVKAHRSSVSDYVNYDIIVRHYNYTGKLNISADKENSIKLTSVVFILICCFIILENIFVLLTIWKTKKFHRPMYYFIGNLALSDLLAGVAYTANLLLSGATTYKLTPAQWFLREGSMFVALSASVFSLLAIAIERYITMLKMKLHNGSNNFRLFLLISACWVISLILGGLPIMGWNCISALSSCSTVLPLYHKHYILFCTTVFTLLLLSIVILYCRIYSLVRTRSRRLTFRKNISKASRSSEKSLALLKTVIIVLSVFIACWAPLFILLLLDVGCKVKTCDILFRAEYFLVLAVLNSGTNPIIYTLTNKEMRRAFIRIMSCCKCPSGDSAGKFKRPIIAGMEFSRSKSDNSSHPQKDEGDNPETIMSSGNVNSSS
The mark [1] stands for this setting: IC50 S1PR2, competition against [32P]S1P, CHO cell membrane.

Like-named read-outs stand apart in the source and are kept apart here.

Sequence of recombinant human S1PR2 (O95136 whole entry): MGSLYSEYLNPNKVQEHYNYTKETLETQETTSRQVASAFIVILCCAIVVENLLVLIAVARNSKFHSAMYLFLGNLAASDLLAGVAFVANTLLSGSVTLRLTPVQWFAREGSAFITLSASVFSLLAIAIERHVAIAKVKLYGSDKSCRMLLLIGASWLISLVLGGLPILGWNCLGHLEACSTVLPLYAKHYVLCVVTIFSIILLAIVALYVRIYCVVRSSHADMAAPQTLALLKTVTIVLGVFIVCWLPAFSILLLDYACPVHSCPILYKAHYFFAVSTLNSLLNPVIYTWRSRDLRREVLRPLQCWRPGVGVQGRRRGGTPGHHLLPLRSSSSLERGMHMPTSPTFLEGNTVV
Sequence of S1PR3 (Q99500 whole entry, species assumed): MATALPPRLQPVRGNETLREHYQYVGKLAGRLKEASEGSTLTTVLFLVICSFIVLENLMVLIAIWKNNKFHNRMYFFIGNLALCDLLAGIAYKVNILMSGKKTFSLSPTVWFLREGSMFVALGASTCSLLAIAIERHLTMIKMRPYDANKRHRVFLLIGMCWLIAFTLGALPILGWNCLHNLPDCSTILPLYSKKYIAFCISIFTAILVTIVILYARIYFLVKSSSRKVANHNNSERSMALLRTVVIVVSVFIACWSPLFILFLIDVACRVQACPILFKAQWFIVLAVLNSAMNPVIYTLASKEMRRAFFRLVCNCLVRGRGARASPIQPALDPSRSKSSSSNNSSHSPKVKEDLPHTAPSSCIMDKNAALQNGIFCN

The term IC50 denotes the concentration at which inhibition is half-maximal. As to `COc1cc(NC(=O)NNc2cc(C(C)C)c3c(C)nn(C)c3n2)cc(Cl)n1` [Compound 5a, N-(2-Chloro-6-methoxypyridin-4-yl)-2-(4-isopropyl-1,3-dimethyl-1H-pyrazolo[3,4-b]pyridin-6-yl)hydrazine-1-carboxamide], the IC50 on recombinant human S1PR2 (setting [1]) was 9.52 ± 0.7 nM; at S1PR3, greater than 1000 nM; at S1PR1 it was greater than 1000 nM. Moreover, on recombinant human S1PR2 (ratio of IC50 values), the “Binding potency for S1PR2 relative to JTE-013” value is “seven-fold more potent”.
Take `COCCOc1cc(NC(=O)NNc2cc(C(C)C)c3c(C)nn(C)c3n2)cc(Cl)n1` [Compound 5c, N-(2-Chloro-6-(2-methoxyethoxy)pyridin-4-yl)-2-(4-isopropyl-1,3-dimethyl-1H-pyrazolo[3,4-b]pyridin-6-yl)hydrazine-1-carboxamide]: the IC50 on recombinant human S1PR2 (setting [1]) is 234 nM; on S1PR3, greater than 1000 nM; at S1PR1 it was greater than 1000 nM.
Regarding `Cc1nn(C)c2nc(NNC(=O)Nc3cc(F)nc(Cl)c3)cc(C(C)C)c12` [Compound 5b, N-(2-Chloro-6-fluoropyridin-4-yl)-2-(4-isopropyl-1,3-dimethyl-1H-pyrazolo[3,4-b]pyridin-6-yl)hydrazine-1-carboxamide], the IC50 was 135 nM on recombinant human S1PR2 (setting [1]), greater than 1000 nM on S1PR3 and greater than 1000 nM on S1PR1.
Take `Cc1nn(C)c2nc(NNC(=O)Nc3cc(Cl)nc(OCCF)c3)cc(C(C)C)c12` [Compound 5f, N-(2-Chloro-6-(2-fluoroethoxy)pyridin-4-yl)-2-(4-isopropyl-1,3-dimethyl-1H-pyrazolo[3,4-b]pyridin-6-yl)hydrazine-1-carboxamide]: the values for the IC50 on recombinant human S1PR2 (setting [1]), on S1PR3 and at S1PR1 were 8.12 ± 0.62 nM, greater than 1000 nM and greater than 1000 nM, respectively.
For the compound `Cc1nn(C)c2nc(NNC(=O)Nc3cc(Cl)nc(Cl)c3)cc(C(C)C)c12` [JTE-013, reference compound], the IC50 is 68.5 ± 7.45 nM at recombinant human S1PR2 (read-out: IC50 S1PR2, competition against [32P]S1P, CHO cell membrane); greater than 1000 nM on S1PR3 (read-out: IC50 S1PR3, competition against [32P]S1P); greater than 1000 nM at S1PR1 (read-out: IC50 S1PR1, competition against [32P]S1P).
Take `COCn1c(Cl)cc(NC(=O)NNc2cc(C(C)C)c3c(C)nn(C)c3n2)cc1=O` [Compound 5d, N-(6-Chloro-1-(methoxymethyl)-2-oxo-1,2-dihydropyridin-4-yl)-2-(4-isopropyl-1,3-dimethyl-1H-pyrazolo[3,4-b]pyridin-6-yl)hydrazine-1-carboxamide]: the IC50 on recombinant human S1PR2 (setting [1]), at S1PR3 and on S1PR1 was greater than 1000 nM in each case. Moreover, the “IC50 S1PR2” value at recombinant human S1PR2 (competition against [32P]S1P, CHO cell membrane) is “No binding potency”.
Regarding `COCOc1cc(NC(=O)NNc2cc(C(C)C)c3c(C)nn(C)c3n2)cc(Cl)n1` [Compound 5e, N-(2-Chloro-6-(methoxymethoxy)pyridin-4-yl)-2-(4-isopropyl-1,3-dimethyl-1H-pyrazolo[3,4-b]pyridin-6-yl)hydrazine-1-carboxamide], the results for the IC50 on recombinant human S1PR2 (setting [1]), on S1PR3 and on S1PR1 were 8.09 ± 0.91 nM, greater than 1000 nM and greater than 1000 nM, respectively.
